How the values were obtained:
[1] = Adsorption-Desorption (DVS), dynamic vapor sorption; format: physicochemical; details: for water adsorbed: at high relative humidity
Method: Amorphous TMC435 (19 mg) was transferred into a SMS (Surface Measurement Systems Ltd.) dynamic vapor sorption model DVS-1 and the weight change was recorded with respect to the atmospheric humidity at 25° C.

[2] = Long-term storage stability of the amorphous form by powder XRD; format: physicochemical; details: stored during 1 year, 8 months and 23 days
Method: This means that the amorphous Na salt of TMC435 allows stable storage during a normal shelf life period. X-ray powder diffraction (XRPD) analysis was carried out on a Philips X′PertPRO MPD diffractometer PW3050/60 with generator PW3040. The instrument was equipped with a Cu LFF X-ray tube PW3373/10. The compound was spread on a zero background sample holder.

[3] = Clinical investigations, tolerability in patients; format: in vivo
Water solubility = format: physicochemical

moisture remaining on the product during the desorption cycle ([1]; DVS desorption cycle, 25° C.)	weight loss during the initial drying step ([1]; DVS, drying 60 min under dry nitrogen, 25° C.)	water adsorbed ([1]; 25° C.)	water adsorbed ([1]; 25° C., listed as sodium salt of compound I)	stability when water is absorbed ([1]; brought into contact with humidity)	hygroscopicity ([1]; listed as Amorphous Sodium Salt Prepared According to Example 1)	hygroscopicity ([1]; listed as sodium salt of compound I)	solid form after DVS (IR and XRD) ([1]; product obtained after DVS)	powder XRD pattern after storage compared with pattern shortly after preparation [2]	water solubility (Water solubility)	SMILES	tolerability in patients [3]
1.61%	2.03%	up to 13%	up to 13.1%	remains stable	Hygroscopic	hygroscopic	remained amorphous	remained essentially unchanged		COc1ccc2c(O[C@@H]3C[C@H]4C(=O)N[C@]5(C(=O)[N-]S(=O)(=O)C6CC6)C[C@H]5/C=C\CCCCN(C)C(=O)[C@@H]4C3)cc(-c3nc(C(C)C)cs3)nc2c1C.[Na+] [amorphous sodium salt of TMC435]	
									poorly water-soluble	COc1ccc2c(O[C@@H]3C[C@H]4C(=O)N[C@]5(C(=O)NS(=O)(=O)C6CC6)C[C@H]5/C=C\CCCCN(C)C(=O)[C@@H]4C3)cc(-c3nc(C(C)C)cs3)nc2c1C [TMC435, (1R,4R,6S,15R,17R)-cis-N-[17-[2-(4-isopropylthiazol-2-yl)-7-methoxy-8-methyl-quinolin-4-yloxy]-13-methyl-2,14-dioxo-3,13-diazatricyclo[13.3.0.0^4,6]octadec-7-ene-4-carbonyl] (cyclopropyl)sulfonamide]	well-tolerated

— patent US9321758B2, “Amorphous salt of a macrocyclic inhibitor of HCV” (Janssen Pharmaceuticals, Inc., priority 2009, dated 2016)
